In paper PMC5329131 (Biochimica et biophysica acta, 2017):
Where no end group is shown, it is not given here.

Experiments:
[1] = molecular target: RyR1 (Oryctolagus cuniculus) (UniProt P11716); experiment: [3H]ryanodine binding; details: cited from earlier work
[2] = system: rabbit skeletal heavy SR vesicles (RyR1); experiment: Ca2+ release from heavy SR vesicles; format: biochemical; details: for Ca2+ release by vesicles (quality control): response to caffeine, 4-cmc and A23187; for Ca2+ release by RyR agonists vs A23187: same vesicles, data not shown
SR Ca2+ release (RyR1) = details: ref Xiao et al., 2016; cited from earlier work
RyRs = details: cited from earlier work
RyR1 = details: alanine scanning of Imperacalcin; ref Lee et al., 2004; cited from earlier work

Chain of UniProt P11716 (P11716 whole entry): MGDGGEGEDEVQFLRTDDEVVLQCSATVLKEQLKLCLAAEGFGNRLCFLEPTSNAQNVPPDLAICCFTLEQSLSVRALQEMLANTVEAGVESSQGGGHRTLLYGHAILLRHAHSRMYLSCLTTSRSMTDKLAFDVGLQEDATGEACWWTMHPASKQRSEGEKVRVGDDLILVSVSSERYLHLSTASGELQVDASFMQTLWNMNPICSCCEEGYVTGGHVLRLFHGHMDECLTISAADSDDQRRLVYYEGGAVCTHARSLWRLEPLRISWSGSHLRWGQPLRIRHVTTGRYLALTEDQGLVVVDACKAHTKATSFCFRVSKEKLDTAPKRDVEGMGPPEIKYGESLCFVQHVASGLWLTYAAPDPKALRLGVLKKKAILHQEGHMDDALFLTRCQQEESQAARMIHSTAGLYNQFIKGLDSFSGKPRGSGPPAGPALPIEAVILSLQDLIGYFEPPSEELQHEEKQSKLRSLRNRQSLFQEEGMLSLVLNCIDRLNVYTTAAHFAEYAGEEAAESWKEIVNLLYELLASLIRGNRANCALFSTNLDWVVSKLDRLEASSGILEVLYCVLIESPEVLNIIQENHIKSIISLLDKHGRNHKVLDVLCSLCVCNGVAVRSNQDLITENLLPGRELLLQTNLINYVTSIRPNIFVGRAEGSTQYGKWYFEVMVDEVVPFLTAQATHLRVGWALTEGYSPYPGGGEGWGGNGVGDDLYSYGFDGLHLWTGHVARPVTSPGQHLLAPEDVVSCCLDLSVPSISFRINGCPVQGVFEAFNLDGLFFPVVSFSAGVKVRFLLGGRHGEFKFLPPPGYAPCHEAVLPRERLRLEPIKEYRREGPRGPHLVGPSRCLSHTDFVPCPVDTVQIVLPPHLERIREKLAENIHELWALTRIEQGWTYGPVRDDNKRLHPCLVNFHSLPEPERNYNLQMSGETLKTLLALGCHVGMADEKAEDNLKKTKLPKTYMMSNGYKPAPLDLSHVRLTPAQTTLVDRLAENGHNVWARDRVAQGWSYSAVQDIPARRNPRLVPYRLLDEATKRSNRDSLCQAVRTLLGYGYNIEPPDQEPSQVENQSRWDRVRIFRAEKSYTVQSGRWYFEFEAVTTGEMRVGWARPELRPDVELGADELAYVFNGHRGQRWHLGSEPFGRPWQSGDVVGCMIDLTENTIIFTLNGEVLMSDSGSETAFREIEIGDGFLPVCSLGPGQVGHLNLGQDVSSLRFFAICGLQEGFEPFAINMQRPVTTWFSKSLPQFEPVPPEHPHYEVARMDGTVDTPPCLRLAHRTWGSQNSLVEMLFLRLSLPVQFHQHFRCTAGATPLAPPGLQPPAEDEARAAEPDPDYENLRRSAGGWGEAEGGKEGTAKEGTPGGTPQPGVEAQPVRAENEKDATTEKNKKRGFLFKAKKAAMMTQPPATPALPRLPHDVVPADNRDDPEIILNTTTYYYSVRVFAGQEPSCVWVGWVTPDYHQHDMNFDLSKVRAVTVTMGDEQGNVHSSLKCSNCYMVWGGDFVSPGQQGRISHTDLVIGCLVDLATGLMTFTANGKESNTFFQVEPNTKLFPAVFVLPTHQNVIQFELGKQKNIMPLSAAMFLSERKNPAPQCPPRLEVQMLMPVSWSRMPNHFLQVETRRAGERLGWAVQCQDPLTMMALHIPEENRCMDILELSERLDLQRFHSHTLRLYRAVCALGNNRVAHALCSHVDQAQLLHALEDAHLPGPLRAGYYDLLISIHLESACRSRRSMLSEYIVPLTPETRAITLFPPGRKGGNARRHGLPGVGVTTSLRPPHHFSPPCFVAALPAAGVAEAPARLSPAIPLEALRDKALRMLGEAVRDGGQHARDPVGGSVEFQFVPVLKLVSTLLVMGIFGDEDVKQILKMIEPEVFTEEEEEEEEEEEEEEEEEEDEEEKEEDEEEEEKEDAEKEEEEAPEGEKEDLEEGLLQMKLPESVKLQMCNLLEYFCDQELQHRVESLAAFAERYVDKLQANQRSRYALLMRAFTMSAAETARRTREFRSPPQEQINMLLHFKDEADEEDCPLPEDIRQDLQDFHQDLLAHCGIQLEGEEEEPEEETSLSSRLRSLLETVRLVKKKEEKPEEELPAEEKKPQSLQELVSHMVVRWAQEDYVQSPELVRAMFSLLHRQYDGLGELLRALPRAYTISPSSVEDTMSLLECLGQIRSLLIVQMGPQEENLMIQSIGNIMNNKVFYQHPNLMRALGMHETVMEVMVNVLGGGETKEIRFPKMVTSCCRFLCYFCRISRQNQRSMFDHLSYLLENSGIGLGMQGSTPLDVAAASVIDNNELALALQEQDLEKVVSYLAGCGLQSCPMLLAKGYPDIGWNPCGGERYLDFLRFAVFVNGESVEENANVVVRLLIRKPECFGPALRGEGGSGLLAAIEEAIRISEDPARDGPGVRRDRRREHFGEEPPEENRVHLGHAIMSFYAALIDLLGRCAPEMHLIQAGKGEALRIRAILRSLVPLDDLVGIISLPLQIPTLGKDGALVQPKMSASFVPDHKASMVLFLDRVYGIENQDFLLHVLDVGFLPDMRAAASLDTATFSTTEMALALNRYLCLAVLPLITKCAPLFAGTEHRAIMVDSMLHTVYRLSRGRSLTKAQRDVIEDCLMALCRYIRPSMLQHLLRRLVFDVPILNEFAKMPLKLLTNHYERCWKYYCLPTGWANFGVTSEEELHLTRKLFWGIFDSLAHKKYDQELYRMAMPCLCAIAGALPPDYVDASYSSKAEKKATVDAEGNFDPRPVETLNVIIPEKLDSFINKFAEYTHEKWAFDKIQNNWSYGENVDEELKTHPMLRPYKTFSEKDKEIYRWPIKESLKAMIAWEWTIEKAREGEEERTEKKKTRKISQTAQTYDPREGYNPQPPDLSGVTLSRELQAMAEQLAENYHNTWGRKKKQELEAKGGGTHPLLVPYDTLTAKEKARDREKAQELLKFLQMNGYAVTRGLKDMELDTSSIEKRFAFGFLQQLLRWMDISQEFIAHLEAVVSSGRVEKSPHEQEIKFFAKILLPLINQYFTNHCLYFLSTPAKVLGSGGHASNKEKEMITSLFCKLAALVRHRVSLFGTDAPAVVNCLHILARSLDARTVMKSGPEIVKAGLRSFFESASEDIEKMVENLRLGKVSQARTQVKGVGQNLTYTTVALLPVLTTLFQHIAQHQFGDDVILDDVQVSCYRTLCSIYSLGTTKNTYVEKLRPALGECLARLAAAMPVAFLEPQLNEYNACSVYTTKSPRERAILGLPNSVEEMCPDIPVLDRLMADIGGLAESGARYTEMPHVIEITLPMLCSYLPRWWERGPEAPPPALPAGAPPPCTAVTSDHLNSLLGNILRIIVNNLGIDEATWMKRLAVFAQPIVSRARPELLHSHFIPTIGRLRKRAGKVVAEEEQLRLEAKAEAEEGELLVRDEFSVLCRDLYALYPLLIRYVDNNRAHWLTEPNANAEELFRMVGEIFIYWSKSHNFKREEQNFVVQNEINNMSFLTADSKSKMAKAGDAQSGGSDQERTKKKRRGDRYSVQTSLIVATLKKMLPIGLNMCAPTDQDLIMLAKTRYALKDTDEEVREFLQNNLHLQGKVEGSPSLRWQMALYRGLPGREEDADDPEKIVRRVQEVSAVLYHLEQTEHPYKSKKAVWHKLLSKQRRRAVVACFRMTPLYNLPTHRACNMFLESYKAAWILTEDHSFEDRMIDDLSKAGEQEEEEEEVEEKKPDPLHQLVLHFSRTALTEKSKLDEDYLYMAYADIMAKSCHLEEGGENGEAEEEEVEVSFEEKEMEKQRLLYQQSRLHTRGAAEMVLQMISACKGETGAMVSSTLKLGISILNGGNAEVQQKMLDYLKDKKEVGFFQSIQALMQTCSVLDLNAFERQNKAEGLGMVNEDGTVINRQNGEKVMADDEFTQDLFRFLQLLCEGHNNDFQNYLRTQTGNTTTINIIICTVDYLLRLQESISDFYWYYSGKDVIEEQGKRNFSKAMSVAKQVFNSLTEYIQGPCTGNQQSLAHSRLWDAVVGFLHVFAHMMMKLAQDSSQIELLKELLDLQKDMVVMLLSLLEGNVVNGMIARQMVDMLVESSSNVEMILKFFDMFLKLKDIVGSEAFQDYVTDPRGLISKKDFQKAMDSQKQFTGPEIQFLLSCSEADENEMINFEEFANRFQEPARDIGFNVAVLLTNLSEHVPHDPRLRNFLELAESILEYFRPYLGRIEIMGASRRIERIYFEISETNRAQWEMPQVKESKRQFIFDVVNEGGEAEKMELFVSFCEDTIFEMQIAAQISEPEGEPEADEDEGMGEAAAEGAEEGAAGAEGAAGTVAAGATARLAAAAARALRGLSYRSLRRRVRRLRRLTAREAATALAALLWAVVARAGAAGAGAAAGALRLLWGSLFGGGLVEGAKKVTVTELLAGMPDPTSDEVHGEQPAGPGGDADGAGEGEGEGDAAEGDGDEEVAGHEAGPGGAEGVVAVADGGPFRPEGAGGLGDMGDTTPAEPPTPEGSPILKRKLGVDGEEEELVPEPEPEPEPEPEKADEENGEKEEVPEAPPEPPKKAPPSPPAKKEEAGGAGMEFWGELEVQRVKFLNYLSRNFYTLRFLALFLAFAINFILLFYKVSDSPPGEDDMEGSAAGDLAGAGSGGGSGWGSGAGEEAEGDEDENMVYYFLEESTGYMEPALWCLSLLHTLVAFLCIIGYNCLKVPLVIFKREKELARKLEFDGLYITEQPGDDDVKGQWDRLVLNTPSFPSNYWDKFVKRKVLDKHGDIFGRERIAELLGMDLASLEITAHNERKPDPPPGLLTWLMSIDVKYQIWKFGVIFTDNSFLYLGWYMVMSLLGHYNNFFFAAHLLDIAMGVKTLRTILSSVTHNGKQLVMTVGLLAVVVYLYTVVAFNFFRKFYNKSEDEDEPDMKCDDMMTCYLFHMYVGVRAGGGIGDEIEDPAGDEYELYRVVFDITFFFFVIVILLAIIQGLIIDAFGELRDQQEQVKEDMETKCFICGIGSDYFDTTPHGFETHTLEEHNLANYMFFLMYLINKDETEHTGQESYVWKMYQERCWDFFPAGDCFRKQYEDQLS

Urocalcin (from UniProt L0GBR1)
Kd [1]: 376 nM

Opicalcin1 (from UniProt P60252)
Kd [1]: 0.3 nM

Cc1cc(O)ccc1Cl [4-cmc]
Ca2+ release by vesicles (quality control) [2]: equivalent amount of Ca^2+
Ca2+ release by RyR agonists vs A23187 [2]: release roughly equivalent levels of Ca^2+ in these vesicles as that emptied by A23187

Hadrucalcin (from UniProt B8QG00)
Kd [1]: 14.8 nM

Maurocalcin (from UniProt P60254)
Kd [1]: 26.4 nM

Hemicalcin (from UniProt A0A1L4BJ42)
Kd [1]: 6.9 nM

Imperacalcin (from UniProt P59868)
Kd [1]: 8.7 nM

CNc1ccc2oc(C[C@H]3O[C@@]4(CC[C@H]3C)O[C@H]([C@H](C)C(=O)c3ccc[nH]3)[C@H](C)C[C@H]4C)nc2c1C(=O)O [A23187]
Ca2+ release by vesicles (quality control) [2]: equivalent amount of Ca^2+

Opicalcin2: calcin from Opistophthalmus carinatus, UniProt P60253 (GDCLPHLKRCKENNDCCSKKCKRRGANPEKRCR; ends and bridges not checked; cysteine pairing not given here; UniProt P60253 34-66, looked up)
binding affinity vs ability to stimulate Ca2+ release (SR Ca2+ release (RyR1)): strong binding affinity but weaker ability to stimulate Ca^2+ release

Vejocalcin (from UniProt P0DPT1)
Kd [1]: 3.7 nM

Opicalcin2 (from UniProt P60253)
Kd [1]: 3.2 nM

Cn1c(=O)c2c(ncn2C)n(C)c1=O [Caffeine, caffeine]
Ca2+ release by vesicles (quality control) [2]: equivalent amount of Ca^2+
Ca2+ release by RyR agonists vs A23187 [2]: release roughly equivalent levels of Ca^2+ in these vesicles as that emptied by A23187

Imperacalcin: 33-amino acid calcin from Pandinus imperator, UniProt P59868 (GDCLPHLKRCKADNDCCGKKCKRRGTNAEKRCR; ends and bridges not checked; cysteine pairing not given here; UniProt P59868 1-33, looked up)
binding site by single RyR1 channel analysis (RyRs; ref Tripathy et al., 1998): enters the channel vestibule and binds to a single site located within the ion conduction pathway and close to the voltage drop of the channel
effect on RyR gating (RyRs; ref not given): increases their activity by inducing the appearance of a long-lived subconductance state

N14A: alanine-scanning mutant N14A of Imperacalcin (GDCLPHLKRCKADADCCGKKCKRRGTNAEKRCR; ends and bridges not checked; cysteine pairing not given here; UniProt P59868 1-33, looked up, variant N14A)
influence of mutation on binding affinity (RyR1): almost no influence on binding affinity
